According to publication PMC10779086, “3-O-Methyltolcapone and Its Lipophilic Analogues Are Potent Inhibitors of Transthyretin Amyloidogenesis with High Permeability and Low Toxicity” (International Journal of Molecular Sciences, 2023):
Where “and” joins values, the source holds several entries; their conditions need not be identical. Identical values can stand only once. Like-named read-outs stand apart in the source and are kept apart here.

Experiments:
[1] = cited from earlier work
[2] = Caco-2 intestinal permeability; format: in vitro ADME, human; settings: human; for recovery at 60 min: Caco-2, pH 7.4, with Elacridar 2 µM; for Papp A→B at 60 min, 10 μM / Papp B→A at 60 min, 10 μM: Caco-2, pH 7.4
Protocol: (§1) Caco-2 cells (cod. HTB-37) were bought from ATCC (American Type Culture Collection, Rockville, MD, USA). Caco-2 cells were cultured for 21 days on a 24 trans-well plate to reach the right confluence and differentiate until the formation of the intestinal epithelium mimetic monolayer. The test substance permeability was measured in both directions (apical to basolateral [A→B] and basolateral to apical [B→A]) across the cell monolayer. The assay was carried out in HBSS transport medium at pH 7.4. Test substance at single concentration (10 μM) was tested in duplicate at one time point (60 min). Monolayer integrity of Caco-2 cells was evaluated by TEER measurements during the experiment and by Lucifer Yellow test after the incubation with the test compound. The concentrations of the test substance and/or reference controls were measured by LC-MS/MS.
(§2) When the inhibitor leads the efflux ratio to a significant reduction (>50%) or to unity, the test compound is classified as a probable substrate of that efflux transporter. As control, the modulation of the efflux ratio of a reference known substrate (Digoxin) was evaluated with or without the respectively inhibitors in every experiment. […] In parallel, mass balance (%) of recovered test substance was also determined. […] Outside these ranges the permeability data is not reliable.

Caco-2 cells [3] = assay: Caco-2 intestinal permeability; format: in vitro ADME, human; settings: reduction of efflux ratio by Elacridar 2 µM
Protocol: as §1, §2

Caco-2 cells [4] = settings: expected value in brackets, cited from earlier work
[5] = Kinetic solubility in PBS; format: physicochemical; settings: Phosphate Buffered Saline (PBS), aqueous buffer, kinetic from dmso stock, PBS pH 7.4, 1% DMSO
Protocol: (§3) The assay combines solubility and a non-cell-based Blood Brain Barrier permeability assay (Parallel Artificial Membrane Permeation Assay; PAMPA-BBB) into a single workflow in which a portion of the filtrate from the Solubility filter plate is added to the donor compartment of the MultiScreen filter plate for the PAMPA-BBB analysis. […] Solutions were filtered into a 96-well collection plate using vacuum filtration and then analysed by UV/Vis spectroscopy. The relative solubility was then calculated using the sum of the recorded values as compared to a standard calibration curve. […] PAMPA-BBB determination was carried out in a 96-well MultiScreen Permeability plate and the ability of a compound to diffuse from a Donor to an Acceptor compartment separated by a Porcine Brain Lipid Extract (PBLE) dissolved in dodecane (20 mg/mL) layer on a PVDF membrane support was measured. The assay was performed in duplicate in PBS at pH 7.4 and the analysis is carried out by UV/Vis spectroscopy.

TTR [6] = target: TTR (Homo sapiens, UniProt P02766); assay: Isothermal titration calorimetry (ITC), one-binding-site model; parameters: made in house; host or cells: E. coli BL21; settings: single-binding-site model, 25 °C
Protocol: At an absorbance value of 600 nm around 0.3, the temperature was shifted to 30 °C.
Data were fitted using the “one-binding-site model” of the Malvern version of ORIGIN v.7. The heat of binding (ΔH), the stoichiometry (n), entropy (ΔS) and the dissociation constant (Kd) were then calculated from plots of the heat evolved per mole of ligand injected versus the molar ratio of ligand to protein using the software provided by the vendor (Table 3). Sample preparation is detailed below. […] A 10 µM protein stock in 2× buffer was then prepared and diluted 1:1 with a 10% DMSO solution, to obtain a 5 µM TTR solution in 1× buffer A and 5% DMSO. Different protein concentrations (3–5 µM) assayed in the replicates were prepared accordingly, starting from a 2× protein solution in 2× buffer A. Each ligand was dissolved in 100% DMSO and a 2 mM stock solution in 100% DMSO was prepared. A 200 µM compound solution was obtained in 10% DMSO and diluted 1:1 with 2× buffer A, to obtain a 100 µM ligand solution to be used for the ITC assays (in 1× buffer A and 5% DMSO).

[7] = Blood-brain barrier permeability (PAMPA-BBB); format: in vitro ADME
Protocol: as §3
The compounds are classified into 2 types: CNS+ compounds that can cross the BBB and CNS- compounds that cannot according to the Pe values (BBB−, Pe < 2 × 10^−6 cm/s; BBB +/−, 2 × 10^−6 cm/s < Pe < 4 × 10^−6 cm/s; BBB+, Pe > 4 × 10^−6 cm/s).
Membrane retention is also evaluated according to Equation (1), (1) 1−Rm=CAccVAcc+CDonorVDonor/Sol×VDonor where Rm is the membrane retention factor. 1 − Rm between 1.2 and 0.8 is considered fully acceptable for the reliability of the results.

TTR [8] = settings: sequential model, cited from earlier work
[9] = Chromatographic Hydrophobicity Index (CHI); format: physicochemical
Source text: The assay is a chromatographic fast gradient reversed-phase method which allows to characterize the lipophilicity of compounds in high throughput screening regime at three different pH values (2.0; 7.4; 10.5). The so defined CHI is obtained from the gradient (buffer/Acetonitrile) retention time after calibrating the chromatographic system with a test mixture of ten known standard compounds. For most compounds, CHI is between 0 and 100 and it approximates the percentage (by volume) of acetonitrile required to achieve an equal distribution of compound between the mobile and the lipophilic stationary phase of a C18 chromatographic column. Compounds that are not retained on the column are assigned to a CHI value < 0, which means very low lipophilicity. For highly lipophilic compounds, which are strongly retained by the column, a CHI value of >100 is assigned. For any value in between, the actual CHI value is calculated based on the calibration line of the reference compounds [49].

[10] = test system: HepG2 human liver cancer cell line; assay: Cytotoxicity in HepG2 cells (ATP viability assay); format: cell-based; settings: 48 h
Protocol: Compounds were dissolved at the concentration of 50 mM in DMSO.
DMSO normalisation at 1.0% was performed in each well.
(§4) Cell viability was evaluated by measuring ATP levels using CellTiter Glo (Promega Cat.n. G7570) according to manufacturer’s instructions.

[11] = test system: SH-SY5Y neuroblastoma human cell line; assay: Cytotoxicity in SH-SY5Y cells (ATP viability assay); format: cell-based; settings: 48 h
Protocol: The neuroblastoma cell line SHSY-5Y (ATCC CRL2266) was cultured in EMEM ATCC medium supplemented with 10% FBS (Euroclone CAT No. ECS0180D), 100 units/mL penicillin, and 100 ug/mL streptomycin sulphate (Euroclone CAT No. ECB3001). Cells were grown at 37 °C in an atmosphere of 5% CO2 and plated at 10,000 cells/well in a 96-well plate (Corning Cat. N. 3610). The compounds were dissolved at a concentration of 10 mM in DMSO. Cells were stimulated for 48 h at 37 °C with serial dilutions of the compounds at the following concentrations: 0.1, 1, 10, 50, 100, and 200 μM and dispensed with an HP Dispenser (Tecan), as triplicates for each concentration. DMSO normalisation at 1.5% was performed in each well.
as §4

recovery at 60 min, 10 µM ([2]; Caco-2, pH 7.4, A→B)	recovery at 60 min, 10 µM ([2]; Caco-2, pH 7.4, B→A)	Papp A→B at 60 min, 10 μM [2]	Papp B→A at 60 min, 10 μM [2]	n (stoichiometry of binding, ligand:TTR tetramer) (TTR [6])	Structure (SMILES)	Papp [Expected Values] (Caco-2 cells [4]; A→B)	solubility [5]	∆H (TTR [6])	further results
–	–	–	–	–	Cn1c(=O)c2c(ncn2C)n(C)c1=O [Caffeine, caffeine]	–	–	–	CNS Class [Expected Values] ([1]; expected class in brackets): CNS− [CNS−] (BBB−, Pe < 2 × 10^−6 cm/s); BBB-Pe [Expected Values] ([1]; expected value in brackets): 1.3 10^−6 cm/s
67 ± 5%	71 ± 6%	0.2 ± 0.1 ×10⁻⁶ cm/s	14.1 ± 2.6 ×10⁻⁶ cm/s	–	C[C@H]1O[C@@H](O[C@H]2[C@@H](O)C[C@H](O[C@H]3[C@@H](O)C[C@H](O[C@H]4CC[C@@]5(C)[C@H](CC[C@@H]6[C@@H]5C[C@@H](O)[C@]5(C)[C@@H](C7=CC(=O)OC7)CC[C@]65O)C4)O[C@@H]3C)O[C@@H]2C)C[C@H](O)[C@@H]1O [Digoxin, reference compound]	2 nm/s	–	–	recovery at 60 min ([2]; A→B + Elacridar 2 µM): 72 ± 1%; recovery at 60 min ([2]; B→A + Elacridar 2 µM): 75 ± 3%; efflux ratio at 60 min, 10 μM ([2]; Caco-2, pH 7.4, without inhibitor, read-out: Efflux Ratio (Papp BA/Papp AB)): > 10; Efflux Ratio (Reduction %) (Caco-2 cells [3]): 96%; Papp [Expected Values] (Caco-2 cells [4]; B→A): 139 nm/s
105 ± 5%	–	> 40 ×10⁻⁶ cm/s	–	–	COCCc1ccc(OCC(O)CNC(C)C)cc1 (stereo not shown) [Metoprolol, reference compound]	>400 [>400] nm/s	–	–	–
–	–	–	–	–	Cn1c(=O)c2[nH]cnc2n(C)c1=O [Theophylline, theophylline, reference compound]	–	> 500 µM	–	–
–	–	–	–	2.4 ± 0.1	O=C(O)c1ccc2nc(-c3cc(Cl)cc(Cl)c3)oc2c1 [tafamidis, reference compound]	–	–	-3.2 kcal/mol and -3.2 ± 0.3 kcal/mol	–
53 ± 1%	70 ± 4%	10.1 ± 1.2 ×10⁻⁶ cm/s	20.6 ± 5.8 ×10⁻⁶ cm/s	2.0 ± 0.1	Cc1ccc(C(=O)c2cc(O)c(O)c([N+](=O)[O-])c2)cc1 [tolcapone]	–	> 500 µM	-11.8 kcal/mol and -11.8 ± 0.5 kcal/mol	1-Rm (membrane retention) [7]: 0.9; Papp ([7]; PBS pH 7.4, read-out: BBB-Pe): 5.6 ×10⁻⁶ cm/s; CNS Class ([7]; classified by Pe): CNS+ (BBB+, Pe > 4 × 10^−6 cm/s); Kd (TTR [8]; read-out: Kd′ (first binding site)): 0.021 µM; Kd (TTR [8]; read-out: Kd″ (second binding site)): 0.058 µM; CHI (pH 2.0) ([9]; pH 2.0): 78.2; CHI (pH 10.5) ([9]; pH 10.5): 49.3; EC50 [10]: 17.5 ± 2.4 µM; EC50 [11]: 29.8 ± 1.1 µM
